Measured values: patent US20260001915A1, “METHODS FOR TREATING OBESITY WITH AN MC4R AGONIST” (RHYTHM PHARMACEUTICALS, INC., priority 2022, published 2026)

Assays:
[1] = clinical trials; cited from earlier work
[2] = Phase 2 open-label study of setmelanotide SC daily in patients with hypothalamic obesity: BMI, BMI Z-score, body weight after 16 weeks; assay type: in vivo, human; settings: for Weight (kg), Week 16 Actual, Mean (SD): 16 weeks of treatment
Procedure: This example describes a phase 2 study that seeks to evaluate the change in body weight in response to an exemplary MC4R agonist, e.g., setmelanotide (i.e., SEQ ID NO: 140) administered subcutaneously (SC) daily in patients with hypothalamic obesity (HO).
Setmelanotide, 10 mg/mL in a sterile solution for injection, was provided at 1.0, 2.0, 3.0 mg QD for patients 6 to <16 years of age, and 2.0 to 3.0 mg QD for patients ≥16 years of age.
The primary endpoint of this study was to identify a proportion of patients with ≥5% reduction from baseline in BMI after 16 weeks of setmelanotide treatment compared to a historic control of <5% in this patient population.
(§1) The secondary endpoints included determination of: • Composite proportion of patients aged ≥6 to <18 years with ≥0.2 reduction of BMI Z-score and patients aged ≥18 years with 5% reduction of body weight from baseline after 16 weeks of setmelanotide • Proportion of patients aged ≥6 to <18 years with ≥0.2 reduction of BMI Z-score from baseline after 16 weeks of setmelanotide • Proportion of patients aged 18 years with 5% reduction of body weight from baseline after 16 weeks of setmelanotide • Change from baseline in waist circumference in patients aged 18 years after 16 weeks of setmelanotide treatment. • Change in hunger in response to 16 weeks of setmelanotide treatment as measured by change from baseline in daily and global hunger scores. • Safety and tolerability assessed by the frequency and severity of AEs, vital signs, and laboratory evaluations. • Change from baseline in metabolic parameters following treatment with setmelanotide, including fasting glucose, HbA1c, lipid profiles (total-, high-density lipoprotein [HDL]-, and low-density lipoprotein [LDL]-cholesterol, triglycerides). • Proportion of patients, regardless of age, with ≥5% body weight loss from baseline after 16 weeks of setmelanotide treatment compared to a historic control of <5% in this patient population. • Change from baseline in BMI, weight, and waist circumference, regardless of age, after 16 weeks of setmelanotide treatment. • Change from baseline in BMI Z-score in patients aged 6 to 12 years and in those aged 6 to <18 years.
This study describes a Phase 2, multicenter, open-label, proof of concept study designed to assess the effect of setmelanotide on weight loss within a population affected by HO. Approximately 15 patients aged 6 to 40 years, inclusive, were enrolled across approximately 3-5 clinical sites in the United States (US).
Patients who were determined to be eligible, based on Screening assessments, returned to the clinic for the Baseline Visit (Visit 2) and received the first setmelanotide dose. The starting setmelanotide dose was dependent on patient age; however, for all patients, the setmelanotide dose was titrated to a final dose of 3.0 mg/day (initial titration phase), as follows
• Starting at Baseline (Day 1; Visit 2) through approximately Day 14, patients received setmelanotide 1.0 mg/day. • Starting at approximately Day 15 through 28, patients received setmelanotide 2.0 mg/day.
• Starting at Baseline (Day 1; Visit 2) through approximately Day 14, patients received setmelanotide 2.0 mg/day. • Starting at approximately Day 15, patients received setmelanotide 3.0 mg/day; patients continue to receive setmelanotide 3.0 mg/day for 14 weeks.
Patients returned to the study center for Visits 3, 4, and 5 (Weeks 4, 8, and 12, respectively), with each of these visits conducted approximately 4 weeks apart. All patients returned to the study center at Week 16 (Visit 6) and received the last setmelanotide injection. Study endpoints were analyzed at Visit 6.
All patients received open-label setmelanotide in this study. Setmelanotide was provided as a preserved, multidose solution for injection to be administered SC, QD. It was formulated as a 10 mg/mL sterile, preserved, clear to slightly opalescent, colorless to slightly colored solution, practically free of visible particles. […]

[3] = Long-term extension study of setmelanotide, hypothalamic obesity subpopulation; assay type: in vivo, human
Procedure: This example describes a long-term extension study of the use of setmelanotide in treating hypothalamic obesity, and further to investigate the safety and tolerability of chronic setmelanotide administration for up to 5 years from initiation of treatment.
Setmelanotide, 10 mg/mL in a sterile solution, QD. Dosing was continued at the dosage of the cessation of the previous setmelanotide trial, (e.g., 3.0 mg QD for most patients enrolled in the setmelanotide trial for treating subjects with hypothalamic obesity), unless a change is determined necessary by the Investigator, e.g., for safety, tolerability, TEAE, SAE, or other concern.
The objective of this study was to examine the long-term safety parameters of chronic, daily subcutaneous setmelanotide injections for a period of up to 5 years. In order to assess this primary endpoint, the occurrence of TEAEs and SAEs were tracked, in addition to other clinical data including any new emergence of injection site reactions, changes in resting heart rate or blood pressure, laboratory workup (e.g., fasting glucose, HbA1c, lipid profiles (total-, high-density lipoprotein [HDL]-, and low-density lipoprotein [LDL]-cholesterol, triglycerides), liver enzymes, changes in physical examination (e.g., weight, BMI, BMI Z-Score), and cardiac changes (e.g., as measured by an electrocardiogram (ECG). […]

[4] = Phase 2 hypothalamic obesity study: safety and tolerability (TEAEs, SAEs); assay type: in vivo, human
Source text: as §1
All screening evaluations were completed and reviewed to confirm that potential patients meet all eligibility criteria. Exemplary evaluations included a medical history review, physical examination, comprehensive skin examination, measurement of height, weight, waist circumference, body composition assessment, pregnancy test (if applicable), daily hunger questionnaires, global hunger assessment, and evaluation of PHQ-A or PHQ-9, C—SSRS, SF-12 or SF-10, IWQOL, FSH, HbA1c, and fasting lipid panel. Adjustments were made depending upon specific circumstances and in consultation with the investigator. Immediate safety concerns were discussed immediately upon occurrence or awareness to determine if the patient should continue or discontinue study treatment.
The most commonly reported TEAE was nausea (63.6%).

[5] = Phase 2 hypothalamic obesity study: daily hunger questionnaire (most hungry last 24 hrs), weekly average of daily most hunger score; assay type: in vivo, human; settings: patients ≥12 years of age
Source text: as §1
All screening evaluations were completed and reviewed to confirm that potential patients meet all eligibility criteria. […]
The daily hunger questionnaire as assessed in patients ≥12 years of age also achieved a clinically meaningful diminution quantifying the most hungry the patient has experienced over the last 24 hours, with a mean reduction in the hunger score of −2.66 after 16 weeks. […]

[6] = patients with POMC and LEPR deficiency obesity; cited from earlier work

For `CC(=O)N[C@@H](CCCNC(=N)N)C(=O)N[C@H]1CSSC[C@@H](C(N)=O)NC(=O)[C@H](Cc2c[nH]c3ccccc23)NC(=O)[C@H](CCCNC(=N)N)NC(=O)[C@@H](Cc2ccccc2)NC(=O)[C@H](Cc2cnc[nH]2)NC(=O)[C@@H](C)NC1=O` [setmelanotide, Ac-Arg-c(Cys-D-Ala-His-D-Phe-Arg-Trp-Cys)-NH2], the “Effect on blood pressure” value [1] is given as “has not been shown to adversely affect blood pressure”, the “Weight (kg), Week 16 Actual, Median” value ([2]; 6-<18 years (N = 9)) is given as 93.07 kg and the “Weight (kg), Week 16 Change from Baseline, Mean (SD)” value (“Weight (kg), Week 16 Change … (SD)” below) ([2]; 6-<18 years (N = 9)) is given as -17.83 kg. For the same compound, the “Weight (kg), Week 16 Change from Baseline, Median” value ([2]; 6-<18 years (N = 9)) was -16.77 kg, the “Weight, Week 16 Percent Change from Baseline, Mean (SD)” value (from here on “Weight, Week 16 Percent Change … (SD)”) ([2]; 6-<18 years (N = 9)) was −17.80% and the “Weight, Week 16 Percent Change from Baseline, Median” value ([2]; 6-<18 years (N = 9)) was −14.12%. The “Weight (kg), Week 16 Actual, Mean (SD)” value ([2]; 6-<18 years (N = 9)) was 89.98 kg, the “Mean BMI reduction” value ([2]; 9 completers at 16 weeks) was −19.5% and the “Mean change in BMI Z score” value ([2]; FAS set, after 16 weeks) was −1.1 point. The “Weight (kg), Week 16 Actual, Median” value ([2]; Total (N = 11)) was 94.27 kg, the “Weight (kg), Week 16 Change … (SD)” value ([2]; Total (N = 11)) was -15.87 kg and the “Weight (kg), Week 16 Change from Baseline, Median” value ([2]; Total (N = 11)) was -13.90 kg. For the same compound, the “Weight, Week 16 Percent Change … (SD)” value ([2]; Total (N = 11)) was −15.79%, the “Weight, Week 16 Percent Change from Baseline, Median” value ([2]; Total (N = 11)) was −13.68% and the “Weight (kg), Week 16 Actual, Mean (SD)” value ([2]; Total (N = 11)) was 91.22 kg. For the same compound, the “Mean percent change in body weight” value ([2]; after 16 weeks of setmelanotide, SD 7.9%) was −17.8%, the “Reduction in BMI Z score” value ([2]; all patients less than 18 years old, 16 weeks) was “statistically significant reduction in BMI Z score” and the “Proportion of patients achieving at least a 10% reduction in BMI” value ([2]; completers (n=9), 16 weeks, p<0.0001) was 100%. For the same compound, the “Proportion of patients achieving greater than or equal to 5% reduction in BMI (primary endpoint)” value ([2]; full analysis set (n=11), 16 weeks, p<0.0001) was 100%, the Reduction in weight ([2]; pediatric and adult patients, 16 weeks of daily SC therapy) was “statistically significant and clinically meaningful reduction in weight” and the “Weight (kg), Week 16 Actual, Median” value ([2]; ≥18 years (N = 2)) was 96.78 kg. For the same compound, the “Weight (kg), Week 16 Change … (SD)” value ([2]; ≥18 years (N = 2)) was -7.02 kg, the “Weight (kg), Week 16 Change from Baseline, Median” value ([2]; ≥18 years (N = 2)) was -7.02 kg and the “Weight, Week 16 Percent Change … (SD)” value ([2]; ≥18 years (N = 2)) was −6.76%. The “Weight, Week 16 Percent Change from Baseline, Median” value ([2]; ≥18 years (N = 2)) was −6.76%, the “Weight (kg), Week 16 Actual, Mean (SD)” value ([2]; ≥18 years (N = 2)) was 96.78 kg and the “BMI in long-term extension” value ([3]; 5 patients from the Phase 2 study, additional 3-8 months) was “all of the patients but one continued to further see reductions in BMI”. The “BMI of the fifth patient (increase in BMI in the extension period)” value ([3]; relative to BMI at initiation of the Phase 2 study) was “did not return to his or her original BMI”, the “Safety and tolerability of setmelanotide treatment” value ([4]; 16 weeks, up to 3.0 mg/day SC) was “consistent with established data” and the “Incidence of nausea (most commonly reported TEAE)” value ([4]; eleven patients) was 63.6%. The “Skin hyperpigmentation, e.g., melanocytic naevus, patients reporting” value ([4]; eleven patients) was “two of the eleven patients”, the “Patients with at least one treatment emergent adverse event (TEAE)” value ([4]; eleven patients, related or unrelated to administration) was “All eleven of the patients” and the “SAE related to Clostridium dificile colitis” value ([4]; one patient, able to complete the study) was “classified as severe, but not related to setmelanotide therapy”. The “Weekly average of daily most hunger score, Week 16 Actual, Median” value ([5]; N 7) was 5.67, the “Weekly average of daily most hunger score, Week 16 Change from Baseline, Median” value ([5]; N 7) was −1.71 and the “Weekly average of daily most hunger score (Most Hungry Last 24 hrs), Week 16 Actual, Mean (SD)” value ([5]; N 7 at Week 16) was 4.55 (2.84). For the same compound, the Reduction in hunger [6] was “statistically significant and clinically meaningful reduction in hunger” and the Weight loss [6] was “rapid and sustained significant and clinically meaningful weight loss”.
